Assay results taken from patent publication EP0029617A1, “Use of tertiary heterocyclic amines as synergists in pesticides; derivatives of cycloamines” (priority 1979, dated 1981).
Where two headings read alike, the source gives them in different places.

Key:
[1] = system: Kornkäfer (sitophilus granarius L); assay: whole plant or invertebrate; assay type: in vivo
Method in brief: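 Acetone solutions (2 ml) were dried as films in 15 cm Petri dishes and 25 grain weevils added per dish, with a filter inserted after 1 h. Dead beetles were counted at 3 h at 19–21 °C, and % mortality and the synergistic factor were derived.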

[2] = Acute oral toxicity, single oral application, 14 day LD50; design: species or system SPF-Wistar-Ratten; settings: rat, in vivo, read-out: 14 Tage LD50
Excerpt: Die erfindungsgemäßen Verbindungen haben nur eine geringe Toxizität. Es wurde die akute, orale Toxizität von Phenyl-N-piperidino-essigsäure-ethylester und 1-N-Undecyl-piperidin bestimmt. Die Tests wurden mit SPF-Wistar-Ratten durchgeführt und die Wirkstoffe einmal oral appliziert.

Drosophila melanogaster = assay: whole plant or invertebrate; assay type: in vivo
[3] = Pyrethroid : Amin 1 : 10, amine 0,1 mg/ml, 180 min

With `CCOC(=O)C(c1ccccc1)N1CCCCC1` (centres unmarked) [Phenyl-N-piperidino-essigsäure-ethylester] the “Synergistischer Faktor bei Ripcord” value ([1]; Pyrethroid : Amin 1 : 10) was 3,14, the “Synergistischer Faktor bei Talcord” value ([1]; Pyrethroid : Amin 1 : 10) was 5,24 and the “% Wirkung Substanz +Ripcord” value [1, 3] was 98,8%. The “% Wirkung Substanz +Talcord” value [1, 3] was 50,8%, the mortality at 100 µg/mL ([1]; Sitophilus granarius, 3 h, amine 0,1 mg/ml (as for Pyrethroid : Amin 1 : 10), read-out: % Wirkung Substanz allein) was 0% and the LD50 at 336 h ([2]; männliche Ratten) was 9750 mg/kg. For the same compound, the LD50 at 336 h ([2]; weibliche Ratten) was 8170 mg/kg, the “Wirksamkeit in % Substanz +Dimeti-lan” value (Drosophila melanogaster; 1 ml 0,05%ige amine solution + 1 ml 0,0001%ige Dimetilan solution) was 2,7% and the “Wirksamkeit in % Substanz +Dimethoat” value (Drosophila melanogaster; 1 ml 0,05%ige amine solution + 1 ml 0,005 %ige Dimethoat solution (Dimethoat : amine 1 : 10)) was 22,2%. The mortality at 0.05 % (Drosophila melanogaster; Drosophila melanogaster, 1 ml 0,05%ige amine solution + 1 ml Aceton per dish, 20 flies, dead counted every 5 min, 12 times, mean values, read-out: Wirksamkeit in % Substanz allein) was 0%, the mortality at 0.01 % (Drosophila melanogaster; Drosophila melanogaster, amine 0,01 %, read-out: Sub-stanz allein) was 0% and the mortality at 0.05 % (Drosophila melanogaster; Drosophila melanogaster, amine 0,05 %, read-out: Sub-stanz allein) was 0%. For the same compound, the “Substanz + Dime-thoat” value (Drosophila melanogaster; amine 0,01 % + Dimethoat 0,005 %, Dimethoat : Amin 1 : 2) was 59,2%, the “Faktor der Wirkungs-steigerung” value (Drosophila melanogaster; amine 0,01 %, Dimethoat : Amin 1 : 2) was 6,88 and the “Substanz + Dime-thoat” value (Drosophila melanogaster; amine 0,05 % + Dimethoat 0,005 %, Dimethoat : Amin 1 : 10) was 22,1%. The “Faktor der Wirkungssteigerung bei Dime-methoat” value (Drosophila melanogaster; amine 0,05 % + Dimethoat 0,005 %, calculated after subtracting the amine's own effect) was 2,57 and the “Faktor der Wirkungs-steigerung” value (Drosophila melanogaster; amine 0,05 %, Dimethoat : Amin 1 : 10) was 2,57.
